The record followed here is ChEMBL document CHEMBL2040775, “Evaluation of novel antioxidant triterpenoid saponins from the halophyte Salicornia herbacea” (Bioorg Med Chem Lett, 2012).

Molecules are shown by their SMILES. Calls of active or inactive are those of the source. No cut-off for these calls is given here. Bounds are passed on as bounds.

Format in all cases: functional
Experiment [1] relates to Radical scavenging activity. The experiment can be described thus: Antioxidant activity assessed as DPPH radical scavenging activity after 30 mins by spectrophotometry. (In general: Loss of DPPH colour is used to gauge radical scavenging.)
Experiment [2] in a line: Antioxidant activity assessed as authentic peroxynitrite radical scavenging activity after 5 mins by spectrophotometry.
A short description of experiment [3]: Antioxidant activity assessed as morpholinosydnonimine-derived peroxynitrite free radical scavenging activity after 5 mins by spectrophotometry.
A short description of experiment [4]: Antioxidant activity assessed as authentic peroxynitrite radical scavenging activity at 50 ug/ml after 5 mins by spectrophotometry.
The nature of experiment [5]: Antioxidant activity assessed as morpholinosydnonimine-derived peroxynitrite free radical scavenging activity at 50 ug/ml after 5 mins by spectrophotometry.
The test system of experiment [6] is Radical scavenging activity. The experiment can be described thus: Antioxidant activity assessed as DPPH radical scavenging activity at 10 ug/ml after 30 mins by spectrophotometry.
Experiment [7] has as its system Radical scavenging activity. Put plainly: Antioxidant activity assessed as DPPH radical scavenging activity a 50 ug/ml after 30 mins by spectrophotometry.
For experiment [8], the system named is Radical scavenging activity. Put plainly: Antioxidant activity assessed as DPPH radical scavenging activity at 100 ug/ml after 30 mins by spectrophotometry.

For orientation: IC50 means the concentration at which inhibition is half-maximal. On to `CC1(C)CC[C@]2(C(=O)O[C@@H]3O[C@H](CO)[C@@H](O)[C@H](O)[C@H]3O)CC[C@]3(C)C(=CC[C@@H]4[C@@]5(C)CC[C@H](O[C@@H]6O[C@H](C(=O)O)[C@@H](O)[C@H](O)[C@H]6O)[C@@](C)(C=O)[C@@H]5CC[C@]43C)[C@@H]2C1`, for which the IC50 is over 500 µM in experiment [1], 7.1 µM in experiment [2] and 1.4 µM in experiment [3]. Further, the outcome in experiment [4] and in experiment [5] was Active.

Regarding `C=C1CC[C@]2(C(=O)O[C@@H]3O[C@H](CO)[C@@H](O)[C@H](O)[C@H]3O)CC[C@]3(C)C(=CC[C@@H]4[C@@]5(C)CC[C@H](O[C@@H]6O[C@H](C(=O)O)[C@@H](O)[C@H](O)[C@H]6O)[C@@](C)(CO)[C@@H]5CC[C@]43C)[C@@H]2C1`, the IC50 in experiment [1] is 390 µM; in experiment [2] it was under 1 µM; in experiment [3], under 1 µM. In addition, the result in experiment [4] and in experiment [5] was Active.

With `CC(C)(S)[C@@H](N)C(=O)O` [PENICILLAMINE], the IC50 in experiment [2] and in experiment [3] was under 1 µM throughout.

For the molecule `C=C1CC[C@]2(C(=O)O[C@@H]3O[C@H](CO)[C@@H](O)[C@H](O)[C@H]3O)CC[C@]3(C)C(=CC[C@@H]4[C@@]5(C)CC[C@H](O[C@@H]6O[C@H](C(=O)O)[C@@H](O)[C@H](O)[C@H]6O)[C@@](C)(C=O)[C@@H]5CC[C@]43C)[C@@H]2C1`, the IC50 is over 500 µM in experiment [1], 4.9 µM in experiment [2] and 6.6 µM in experiment [3]. Besides, the outcome in experiment [4] and in experiment [5] was Active.

As for `CC1(C)CC[C@]2(C(=O)O)CC[C@]3(C)C(=CC[C@@H]4[C@@]5(C)CC[C@H](O[C@@H]6O[C@H](C(=O)O)[C@@H](O)[C@H](O)[C@H]6O)[C@@](C)(C=O)[C@@H]5CC[C@]43C)[C@@H]2C1`, the IC50 is over 500 µM in experiment [1], 21.9 µM in experiment [2] and 20.4 µM in experiment [3]. The outcome in experiment [4] and in experiment [5] was Active.

Turning to `Cc1cc(C(C)(C)C)c(O)c(C(C)(C)C)c1` [BUTYLATED HYDROXYTOLUENE], the 50% inhibitory concentration (IC50) in experiment [1] was under 200 µM. Moreover, the Activity worked out at 39.7% in experiment [6], 54.9% in experiment [7] and 68% in experiment [8].

With `O=C1O[C@H]([C@@H](O)CO)C(O)=C1O` [ASCORBIC ACID], the values for the IC50 in experiment [1], in experiment [2] and in experiment [3] were under 20 µM, 1.5 µM and under 1 µM, respectively. Further, the Activity stood at 94.9% in experiment [6], 95.1% in experiment [7] and 95% in experiment [8].
